Results: patent US10005824B2, “Selective PYY compounds and uses thereof” (Novo Nordisk A/S, priority 2015, dated 2018)

Tests used:
[1] = target: T1, human Y1 receptor (Homo sapiens, UniProt P25929); assay: Scintillation proximity assay (SPA) receptor binding, Y1
T1 construct: expressed in transfected cells; host or cells: BHK-21 clone 6-482-8, IPTG-induced (membrane preparation)
T1 sequence (P25929 1-384): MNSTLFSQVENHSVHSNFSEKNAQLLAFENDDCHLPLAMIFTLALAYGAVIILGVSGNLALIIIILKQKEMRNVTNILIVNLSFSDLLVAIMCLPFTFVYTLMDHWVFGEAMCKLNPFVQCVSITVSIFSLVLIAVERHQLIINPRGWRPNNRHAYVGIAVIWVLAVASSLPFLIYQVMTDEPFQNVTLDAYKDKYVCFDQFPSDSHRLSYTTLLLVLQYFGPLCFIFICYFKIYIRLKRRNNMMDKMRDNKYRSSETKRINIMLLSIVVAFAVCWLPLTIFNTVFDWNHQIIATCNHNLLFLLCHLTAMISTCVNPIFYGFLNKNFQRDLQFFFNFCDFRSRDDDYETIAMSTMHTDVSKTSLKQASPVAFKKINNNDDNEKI
Procedure: (§1) The purpose of this example is to test the in vitro binding of the PYY compounds to the Y1, Y2, Y4 and Y5 receptor subtypes, respectively. The receptor binding affinity is a measure of affinity of a compound for the human Y1, Y2, Y4 and Y5 receptor subtypes, respectively.
(§2) Scintillation Proximity Assay (SPA)
(§3) NPY-Receptor Expressing Cell Lines.
(§4) All cells were cultured at +37° C. in a humidified atmosphere with 5% CO2. […] CHO-K1 cells stably expressing the human Y2 receptor (P49146, NPY2R_HUMAN, Uniprot) were cultured in DMEM F-12 with 10% FBS, 1% P/S, 150 μg/ml Hygromycin B and 10 μg/ml Puromycin antibiotic. CHO-K1 cells stably expressing the human Y4 receptor (P50391, NPY4R_HUMAN, Uniprot) were cultured in DMEM F-12 with 10% FBS, 1% P/S, 10 μg/ml Puromycin. HEK-293 cells stably expressing the human Y5 receptor (Q15761, NPY5R_HUMAN, Uniprot) were cultured in DMEM F-12 medium containing 10% FBS, 1% Penicillin-Streptomycin, 250 μg/ml G418 and 1 μg/ml puromycin.
(§5) The homogenate was centrifuged at 35000 g using an ultracentrifuge for 10 minutes at +4° C. and the supernatant was discarded and fresh homogenization buffer added. Homogenization of the pellet was repeated a total of three times.
(§6) Human Y receptor SPA binding assay were performed in white 96-well plates in a total volume of 200 μl per well.
(§7) Plates were sealed and incubated at +25° C. for 2 hours in a plate shaker set at 400 rpm and thereafter centrifuged at 1500 rpm for 10 minutes prior to reading of luminescence on a microplate scintillation and luminescence counter. […] Displacement of radioligand was measured as reduction in luminescence and IC50 values were calculated by nonlinear regression analysis of sigmoidal dose-response curves.

[2] = target: T2, human Y4 receptor (Homo sapiens, UniProt P50391); assay: Scintillation proximity assay (SPA) receptor binding, Y4; details: Y4 Ki, membranes of CHO-K1 cells, [125I]-Pancreatic Polypeptide
T2 construct: expressed in transfected cells; host or cells: CHO-K1 (membrane preparation)
Procedure: as §1, §2, §3, §4, §5, §6, §7

[3] = Pharmacokinetic study in minipigs after i.v. administration; assay type: in vivo; details: female, Göttingen, minipig, plasma, iv, 15 nmol/kg; read-out: Half-life (t½) (converted)
From the text: By terminal half-life is generally meant the period of time it takes to halve a certain plasma concentration, measured after the initial distribution phase.
After minimum 2 weeks of acclimatization two permanent central venous catheters were implemented in vena cava caudalis in each animal. After surgery the animals were in their normal individual pens during the pharmacokinetic experiments.
On day 1 the catheters are coupled to extension tubes, which will be removed at the end of day 1. […] Samples were kept on wet ice until centrifugation (10 min, 4° C., 1942 g).
Plasma concentration-time profiles was analysed by a non-compartmental pharmacokinetics analysis using Phoenix (Pharsight Inc., Mountain View, Calif., USA). Calculations were performed using individual concentration-time values from each animal.

[4] = target: T3, human Y2 receptor (Homo sapiens, UniProt P49146); assay: Scintillation proximity assay (SPA) receptor binding, Y2
T3 construct: expressed in transfected cells; host or cells: CHO-K1 (membrane preparation)
T3 sequence (P49146 1-381): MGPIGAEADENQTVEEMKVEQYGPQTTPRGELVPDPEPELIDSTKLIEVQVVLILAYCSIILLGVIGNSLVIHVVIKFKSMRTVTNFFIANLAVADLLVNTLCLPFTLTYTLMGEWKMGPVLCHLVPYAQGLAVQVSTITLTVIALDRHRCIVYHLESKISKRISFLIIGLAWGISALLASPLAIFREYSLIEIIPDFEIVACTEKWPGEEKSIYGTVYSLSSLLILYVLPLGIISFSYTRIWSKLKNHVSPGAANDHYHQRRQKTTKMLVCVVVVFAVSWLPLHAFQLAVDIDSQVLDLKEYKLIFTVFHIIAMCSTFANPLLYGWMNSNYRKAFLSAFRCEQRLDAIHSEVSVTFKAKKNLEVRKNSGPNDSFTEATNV
Procedure: as §1, §2, §3
as §4, with “puromycin. […]” for “puromycin.”
as §7

T2 sequence (P50391 whole entry): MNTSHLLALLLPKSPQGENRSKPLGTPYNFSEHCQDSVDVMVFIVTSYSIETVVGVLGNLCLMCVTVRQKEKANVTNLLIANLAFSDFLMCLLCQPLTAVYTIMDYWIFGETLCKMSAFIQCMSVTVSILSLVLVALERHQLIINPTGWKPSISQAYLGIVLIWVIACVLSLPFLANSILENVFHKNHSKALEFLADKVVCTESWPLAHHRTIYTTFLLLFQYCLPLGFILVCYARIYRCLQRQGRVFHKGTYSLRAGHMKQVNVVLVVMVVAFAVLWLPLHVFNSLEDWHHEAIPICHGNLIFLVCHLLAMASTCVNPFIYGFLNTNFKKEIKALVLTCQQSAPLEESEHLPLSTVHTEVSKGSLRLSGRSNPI

## CC(C)CC(=O)N[C@@H](CCCNC(=N)N)C(=O)N1CCC[C@H]1C(=O)N[C@@H](CCC(=O)O)C(=O)N[C@@H](C)C(=O)N1CCC[C@H]1C(=O)NCC(=O)N[C@@H](CCCCNC(=O)CC[C@H](NC(=O)COCCOCCNC(=O)CC[C@H](NC(=O)CCCCCCCCCCCCCCCCC(=O)O)C(=O)O)C(=O)O)C(=O)N[C@@H](CC(=O)O)C(=O)N[C@@H](C)C(=O)N[C@@H](CO)C(=O)N1CCC[C@H]1C(=O)N[C@@H](CCC(=O)O)C(=O)N[C@@H](CCC(=O)O)C(=O)N[C@@H](CC(C)C)C(=O)N[C@@H](CCC(N)=O)C(=O)N[C@@H](CCCNC(=N)N)C(=O)N[C@@H](Cc1ccc(O)cc1)C(=O)N[C@@H](Cc1ccc(O)cc1)C(=O)N[C@@H](CCC(=O)O)C(=O)N[C@@H](CO)C(=O)N[C@@H](CC(C)C)C(=O)N[C@@H](CCCNC(=N)N)C(=O)N[C@@H](Cc1c[nH]cn1)C(=O)N[C@@H](Cc1ccc(O)cc1)C(=O)N[C@@H](Cc1ccc(O)cc1)C(=O)N[C@@H](CC(N)=O)C(=O)N[C@@H](Cc1c[nH]c2ccccc12)C(=O)N[C@@H](CC(C)C)C(=O)N[C@H](C(=O)N[C@@H](CCCNC(=N)N)C(=O)N[C@@H](CCC(N)=O)C(=O)N[C@@H](CCCNC(=N)N)C(=O)N[C@@H](Cc1ccc(O)cc1)C(N)=O)[C@@H](C)O [Compound 50, N{alpha-4}-(3-Methylbutanoyl)-N{Epsilon-10}-[(4S)-4-carboxy-4-[[2-[2-[2-[[(4S)-4-carboxy-4-(17-carboxyheptadecanoylamino)butanoyl]amino]ethoxy]ethoxy]-acetyl]amino]butanoyl]-[Arg4,Lys10,Gln18,Glu22,Tyr28,Trp30,Leu31]-PYY(4-36)]
[1]
  Ki: > 10 µM
[2]
  Ki: > 10 µM
[3]
  half-life: 94 h

## CC(C)CC(=O)N[C@@H](CCCNC(=N)N)C(=O)N1CCC[C@H]1C(=O)N[C@@H](CCC(=O)O)C(=O)N[C@@H](C)C(=O)N1CCC[C@H]1C(=O)N1CCC[C@H]1C(=O)N[C@@H](CCCCNC(=O)CC[C@H](NC(=O)COCCOCCNC(=O)CC[C@H](NC(=O)CCCCCCCCCCCCCCCS(=O)(=O)O)C(=O)O)C(=O)O)C(=O)N[C@@H](CC(=O)O)C(=O)N[C@@H](C)C(=O)N[C@@H](CO)C(=O)N1CCC[C@H]1C(=O)N[C@@H](CCC(=O)O)C(=O)N[C@@H](CCC(=O)O)C(=O)N[C@@H](CC(C)C)C(=O)N[C@@H](CCC(N)=O)C(=O)N[C@@H](CCCNC(=N)N)C(=O)N[C@@H](Cc1ccc(O)cc1)C(=O)N[C@@H](Cc1ccc(O)cc1)C(=O)N[C@@H](C)C(=O)N[C@@H](CO)C(=O)N[C@@H](CC(C)C)C(=O)N[C@@H](CCCNC(=N)N)C(=O)N[C@@H](Cc1c[nH]cn1)C(=O)N[C@@H](Cc1ccc(O)cc1)C(=O)N[C@@H](Cc1ccc(O)cc1)C(=O)N[C@@H](CC(N)=O)C(=O)N[C@@H](Cc1c[nH]c2ccccc12)C(=O)N[C@@H](CC(C)C)C(=O)N[C@H](C(=O)N[C@@H](CCCNC(=N)N)C(=O)N[C@@H](CCC(N)=O)C(=O)N[C@@H](CCCNC(=N)N)C(=O)N[C@@H](Cc1ccc(O)cc1)C(N)=O)[C@@H](C)O [Compound 69, N{alpha-4}-(3-Methylbutanoyl)-N{Epsilon-10}-[(4S)-4-carboxy-4-[[2-[2-[2-[[(4S)-4-carboxy-4-(16-sulfohexadecanoylamino)butanoyl]amino]ethoxy]-ethoxy]acetyl]amino]butanoyl]-[Arg4,Pro9,Lys10,Gln18,Tyr28,Trp30,Leu31]-PYY-(4-36)]
[1]
  Ki: > 10 µM
[2]
  Ki: 5.69 µM
[3]
  half-life: 64 h

## CC(C)CC(=O)N[C@@H](CCCNC(=N)N)C(=O)N1CCC[C@H]1C(=O)N[C@@H](CCC(=O)O)C(=O)N[C@@H](CCCCNC(=O)CC[C@H](NC(=O)CCCCCCCCCCCCCCCCC(=O)O)C(=O)O)C(=O)N1CCC[C@H]1C(=O)N[C@H](C(=O)N[C@@H](CCC(=O)O)C(=O)N[C@@H](CC(=O)O)C(=O)N[C@@H](C)C(=O)N[C@@H](CO)C(=O)N1CCC[C@H]1C(=O)N[C@@H](CCC(=O)O)C(=O)N[C@@H](CCC(=O)O)C(=O)N[C@@H](CC(C)C)C(=O)N[C@@H](CCC(N)=O)C(=O)N[C@@H](CCCNC(=N)N)C(=O)N[C@@H](Cc1ccc(O)cc1)C(=O)N[C@@H](Cc1ccc(O)cc1)C(=O)N[C@H](C(=O)N[C@@H](CO)C(=O)N[C@@H](CC(C)C)C(=O)N[C@@H](CCCNC(=N)N)C(=O)N[C@@H](Cc1c[nH]cn1)C(=O)N[C@@H](Cc1ccc(O)cc1)C(=O)N[C@@H](Cc1ccc(O)cc1)C(=O)N[C@@H](CC(N)=O)C(=O)N[C@@H](Cc1c[nH]c2ccccc12)C(=O)N[C@@H](CC(C)C)C(=O)N[C@H](C(=O)N[C@@H](CCCNC(=N)N)C(=O)N[C@@H](CCC(N)=O)C(=O)N[C@@H](CCCNC(=N)N)C(=O)N[C@@H](Cc1ccc(O)cc1)C(N)=O)[C@@H](C)O)C(C)C)[C@@H](C)O [Compound 44, N{alpha-4}-(3-Methylbutanoyl)-N{Epsilon-7}-[(4S)-4-carboxy-4-(17-carboxy-heptadecanoylamino)butanoyl]-[Arg4,Lys7,Thr9,Gln18,Val22,Tyr28,Trp30,Leu31]hPYY(4-36)]
[4]
  Ki: 0.00033 µM
[1]
  Ki: > 10 µM
